Laboratory results taken from ChEMBL document CHEMBL3885861, “Open TG-GATES”.

Species: Rattus norvegicus
Assay: Open TG-GATES - Regimen: Daily Repeat
Format: toxicity, organism-based, Sprague-Dawley
Parameters: regimen Daily Repeat, gender Male, age 6 weeks
Details: in vivo, po, 1000 mg/kg, route gavage, dose level High; for APTT / Bas / Eos / Fbg / Hb / Ht / Lym / MCH / MCHC / MCV / Mono / Neu / PT / Plat / RBC / Ret / WBC: tissue Blood; for KIDNEY_L / KIDNEY_R / KIDNEY_TOTAL: tissue Kidney; for LIVER: tissue Liver; for A/G / ALP / ALT / AST / BUN / CRE / Ca / Cl / DBIL / GLC / IP / K / LDH / Na / PL / RALB / TBIL / TC / TG / TP / gamma-GTP: tissue Plasma

COc1ccc(Cl)cc1C(=O)NCCc1ccc(S(=O)(=O)NC(=O)NC2CCCCC2)cc1 [GLYBURIDE]
TERMINAL_BW (72 h, time 3 day): 228 g | APTT (72 h, time 3 day): 20.6 s | Bas (72 h, time 3 day): 0% | Eos (72 h, time 3 day): 1.2% | Fbg (72 h, time 3 day): 221.4 mg/dL | Hb (72 h, time 3 day): 13.5 g/dL | Ht (72 h, time 3 day): 40.2% | Lym (72 h, time 3 day): 79.2% | MCH (72 h, time 3 day): 21.1 pg | MCHC (72 h, time 3 day): 33.6% | MCV (72 h, time 3 day): 62.9 fL | Mono (72 h, time 3 day): 2.4% | Neu (72 h, time 3 day): 16.4% | PT (72 h, time 3 day): 12.3 s | Plat (72 h, time 3 day): 120.1 x10_4/uL | RBC (72 h, time 3 day): 640 x10_4/ul | Ret (72 h, time 3 day): 5.2% | WBC (72 h, time 3 day): 112.9 x10_2/uL | KIDNEY_L (72 h, time 3 day): 1 g | KIDNEY_R (72 h, time 3 day): 1 g | KIDNEY_TOTAL (72 h, time 3 day): 2 g | LIVER (72 h, time 3 day): 11.1 g | A/G (72 h, time 3 day): 1.6 | ALP (72 h, time 3 day): 893.4 IU/L | ALT (72 h, time 3 day): 36.4 IU/L | AST (72 h, time 3 day): 61.4 IU/L | BUN (72 h, time 3 day): 15.2 mg/dL | CRE (72 h, time 3 day): 0.4 mg/dL | Ca (72 h, time 3 day): 10.8 mg/dL | Cl (72 h, time 3 day): 102.8 meq/L | DBIL (72 h, time 3 day): 0.094 mg/dL | GLC (72 h, time 3 day): 200.2 mg/dL | IP (72 h, time 3 day): 6.7 mg/dL | K (72 h, time 3 day): 4 meq/L | LDH (72 h, time 3 day): 179.2 IU/L | Na (72 h, time 3 day): 140.6 meq/L | PL (72 h, time 3 day): 150.2 mg/dL | RALB (72 h, time 3 day): 3.4 g/dL | TBIL (72 h, time 3 day): 0.1 mg/dL | TC (72 h, time 3 day): 74.4 mg/dL | TG (72 h, time 3 day): 93.4 mg/dL | TP (72 h, time 3 day): 5.5 g/dL | gamma-GTP (72 h, time 3 day): 1 IU/L | TERMINAL_BW ([…], time 7 day): 260.9 g | TERMINAL_BW ([…], time 14 day): 308.1 g | TERMINAL_BW ([…], time 28 day): 392.8 g | APTT ([…], time 7 day): 19.8 s | Bas ([…], time 7 day): 0.2% | Eos ([…], time 7 day): 1% | Fbg ([…], time 7 day): 220 mg/dL | Hb ([…], time 7 day): 13.6 g/dL | Ht ([…], time 7 day): 40% | Lym ([…], time 7 day): 81% | MCH ([…], time 7 day): 20.7 pg | MCHC ([…], time 7 day): 34% | MCV ([…], time 7 day): 60.8 fL | Mono ([…], time 7 day): 2.2% | Neu ([…], time 7 day): 15.2% | PT ([…], time 7 day): 12.4 s | Plat ([…], time 7 day): 129 x10_4/uL | RBC ([…], time 7 day): 658.4 x10_4/ul | Ret ([…], time 7 day): 5.2% | WBC ([…], time 7 day): 109.6 x10_2/uL | APTT ([…], time 14 day): 20.5 s | Bas ([…], time 14 day): 0% | Eos ([…], time 14 day): 0.8% | Fbg ([…], time 14 day): 224.4 mg/dL | Hb ([…], time 14 day): 14 g/dL | Ht ([…], time 14 day): 40.6% | Lym ([…], time 14 day): 81% | MCH ([…], time 14 day): 20.7 pg | MCHC ([…], time 14 day): 34.6% | MCV ([…], time 14 day): 59.9 fL | Mono ([…], time 14 day): 2.4% | Neu ([…], time 14 day): 15.2% | PT ([…], time 14 day): 12.2 s | Plat ([…], time 14 day): 116.7 x10_4/uL | RBC ([…], time 14 day): 678.6 x10_4/ul | Ret ([…], time 14 day): 4.5% | WBC ([…], time 14 day): 129.3 x10_2/uL | APTT ([…], time 28 day): 20.5 s | Bas ([…], time 28 day): 0% | Eos ([…], time 28 day): 1% | Fbg ([…], time 28 day): 218.2 mg/dL | Hb ([…], time 28 day): 14.9 g/dL | Ht ([…], time 28 day): 42.8% | Lym ([…], time 28 day): 81.4% | MCH ([…], time 28 day): 19.5 pg | MCHC ([…], time 28 day): 34.8% | MCV ([…], time 28 day): 56 fL | Mono ([…], time 28 day): 2.4% | Neu ([…], time 28 day): 14.4% | PT ([…], time 28 day): 12.3 s | Plat ([…], time 28 day): 99 x10_4/uL | RBC ([…], time 28 day): 766.2 x10_4/ul | Ret ([…], time 28 day): 2.7% | WBC ([…], time 28 day): 123.6 x10_2/uL | KIDNEY_L ([…], time 7 day): 1.1 g | KIDNEY_R ([…], time 7 day): 1.1 g | KIDNEY_TOTAL ([…], time 7 day): 2.2 g | KIDNEY_L ([…], time 14 day): 1.2 g | KIDNEY_R ([…], time 14 day): 1.2 g | KIDNEY_TOTAL ([…], time 14 day): 2.4 g | KIDNEY_L ([…], time 28 day): 1.3 g | KIDNEY_R ([…], time 28 day): 1.4 g | KIDNEY_TOTAL ([…], time 28 day): 2.7 g | LIVER ([…], time 7 day): 12.5 g | LIVER ([…], time 14 day): 13.8 g | LIVER ([…], time 28 day): 16 g | A/G ([…], time 7 day): 1.4 | ALP ([…], time 7 day): 962.2 IU/L | ALT ([…], time 7 day): 35 IU/L | AST ([…], time 7 day): 61.6 IU/L | BUN ([…], time 7 day): 16.2 mg/dL | CRE ([…], time 7 day): 0.4 mg/dL | Ca ([…], time 7 day): 10.8 mg/dL | Cl ([…], time 7 day): 102.6 meq/L | DBIL ([…], time 7 day): 0.1 mg/dL | GLC ([…], time 7 day): 212 mg/dL | IP ([…], time 7 day): 6.9 mg/dL | K ([…], time 7 day): 3.8 meq/L | LDH ([…], time 7 day): 169.4 IU/L | Na ([…], time 7 day): 140.8 meq/L | PL ([…], time 7 day): 151.4 mg/dL | RALB ([…], time 7 day): 3.3 g/dL | TBIL ([…], time 7 day): 0.2 mg/dL | TC ([…], time 7 day): 73 mg/dL | TG ([…], time 7 day): 123.6 mg/dL | TP ([…], time 7 day): 5.6 g/dL | gamma-GTP ([…], time 7 day): 1.4 IU/L | A/G ([…], time 14 day): 1.5 | ALP ([…], time 14 day): 801.6 IU/L | ALT ([…], time 14 day): 33.4 IU/L | AST ([…], time 14 day): 56.8 IU/L | BUN ([…], time 14 day): 14.6 mg/dL | CRE ([…], time 14 day): 0.5 mg/dL | Ca ([…], time 14 day): 10.6 mg/dL | Cl ([…], time 14 day): 102.8 meq/L | DBIL ([…], time 14 day): 0.1 mg/dL | GLC ([…], time 14 day): 174.6 mg/dL | IP ([…], time 14 day): 6.7 mg/dL | K ([…], time 14 day): 3.7 meq/L | LDH ([…], time 14 day): 115 IU/L | Na ([…], time 14 day): 141 meq/L | PL ([…], time 14 day): 151 mg/dL | RALB ([…], time 14 day): 3.6 g/dL | TBIL ([…], time 14 day): 0.2 mg/dL | TC ([…], time 14 day): 72.4 mg/dL | TG ([…], time 14 day): 102.2 mg/dL | TP ([…], time 14 day): 5.9 g/dL | gamma-GTP ([…], time 14 day): 1.4 IU/L | A/G ([…], time 28 day): 1.4 | ALP ([…], time 28 day): 552.4 IU/L | ALT ([…], time 28 day): 31.6 IU/L | AST ([…], time 28 day): 55.2 IU/L | BUN ([…], time 28 day): 16 mg/dL | CRE ([…], time 28 day): 0.5 mg/dL | Ca ([…], time 28 day): 10.3 mg/dL | Cl ([…], time 28 day): 103 meq/L | DBIL ([…], time 28 day): 0.098 mg/dL | GLC ([…], time 28 day): 230.2 mg/dL | IP ([…], time 28 day): 6.5 mg/dL | K ([…], time 28 day): 4.2 meq/L | LDH ([…], time 28 day): 131 IU/L | Na ([…], time 28 day): 141 meq/L | PL ([…], time 28 day): 153.2 mg/dL | RALB ([…], time 28 day): 3.5 g/dL | TBIL ([…], time 28 day): 0.2 mg/dL | TC ([…], time 28 day): 75.6 mg/dL | TG ([…], time 28 day): 102 mg/dL | TP ([…], time 28 day): 6 g/dL | gamma-GTP ([…], time 28 day): 0.8 IU/L
